Assay results: US20210369684A1 (MOUNT TAM THERAPEUTICS, INC., priority 2018, published 2021)

Columns and labels:
6-OHDA injected mice [1] = experiment: Anti-TH immunohistochemistry, 6-OHDA-induced striatal denervation; format: in vivo, mouse; conditions: one-way ANOVA, FIG. 3B
Protocol: Immunohistochemistry analysis using anti-tyrosine hydroxylase (TH) antibody was performed in mouse midbrain sections to quantify 6-OHDA-induced striatal denervation in mice injected with 6-OHDA and non-injected (control) sides of the brain. […] In contrast, both the 6-OHDA/rapamycin-treated and the 6-OHDA/Formula II-treated sides of the brain show increased staining with the anti-TH antibody, as indicated by the dark shading in those figures. FIG. 3B presents the mean and standard error of the mean (SEM) of the integrated density of anti-TH antibody staining in the striatum, as well as statistical analysis of the results for the groups of mice.

6-OHDA injected mice [2] = experiment: Anti-TH immunohistochemistry, 6-OHDA-induced neuronal loss (TH-positive somas in SN); format: in vivo, mouse; conditions: one-way ANOVA, FIG. 4B
Protocol: Immunohistochemistry analysis using anti-tyrosine hydroxylase (TH) antibody was also performed to quantify 6-OHDA-induced neuronal loss in mice injected with 6-OHDA and non-injected (control) sides of the brain. […] FIG. 4B presents the mean and standard error of the mean (SEM) as well as statistical analysis of the results.

With `CO[C@H]1C[C@@H]2CC[C@@H](C)[C@@](O)(O2)C(=O)C(=O)N2CCCC[C@H]2C(=O)O[C@H]([C@H](C)C[C@@H]2CC[C@@H](O)[C@H](OC)C2)CC(=O)[C@H](C)/C=C(\C)[C@@H](O)[C@@H](OC)C(=O)[C@H](C)C[C@H](C)/C=C/C=C/C=C/1C` [rapamycin, Rapamycin, reference compound] the “integrated density of anti-TH staining in striatum, p versus vehicle control” value (6-OHDA injected mice [1]) was under 0.05 and the “TH+ neuronal loss, p versus vehicle control” value (6-OHDA injected mice [2]) was under 0.001.
